Test [1] concerns the target T1, P2X7 receptor (mP2X7R) (Mus musculus, UniProt Q9Z1M0).
T1 construct: gene P2rx7
T1 sequence (Q9Z1M0 1-595): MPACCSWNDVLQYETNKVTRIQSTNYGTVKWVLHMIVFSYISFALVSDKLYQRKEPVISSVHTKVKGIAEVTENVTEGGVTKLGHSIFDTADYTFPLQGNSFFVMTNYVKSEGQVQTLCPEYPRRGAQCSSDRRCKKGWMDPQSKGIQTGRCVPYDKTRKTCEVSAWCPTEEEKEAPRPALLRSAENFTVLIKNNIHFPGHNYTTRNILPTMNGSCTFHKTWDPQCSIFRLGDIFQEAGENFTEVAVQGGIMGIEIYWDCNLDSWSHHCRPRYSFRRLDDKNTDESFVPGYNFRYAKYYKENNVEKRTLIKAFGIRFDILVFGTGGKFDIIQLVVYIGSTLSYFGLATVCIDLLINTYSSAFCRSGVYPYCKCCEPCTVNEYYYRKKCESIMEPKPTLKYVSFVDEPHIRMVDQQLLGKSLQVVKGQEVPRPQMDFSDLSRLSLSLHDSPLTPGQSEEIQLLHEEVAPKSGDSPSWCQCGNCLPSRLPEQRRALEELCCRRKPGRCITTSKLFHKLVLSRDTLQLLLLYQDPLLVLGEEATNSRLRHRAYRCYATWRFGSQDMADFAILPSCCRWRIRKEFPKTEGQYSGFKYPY
Put plainly: ATP/BzATP-induced YO-PRO-1 uptake and Ca2+ influx in RAW […] cells. Format: cell-based.

For a further test, the target named is T2, P2X7 receptor (hP2X7) (Homo sapiens, UniProt Q99572).
T2 construct: gene P2RX7
T2 sequence (Q99572 47-334): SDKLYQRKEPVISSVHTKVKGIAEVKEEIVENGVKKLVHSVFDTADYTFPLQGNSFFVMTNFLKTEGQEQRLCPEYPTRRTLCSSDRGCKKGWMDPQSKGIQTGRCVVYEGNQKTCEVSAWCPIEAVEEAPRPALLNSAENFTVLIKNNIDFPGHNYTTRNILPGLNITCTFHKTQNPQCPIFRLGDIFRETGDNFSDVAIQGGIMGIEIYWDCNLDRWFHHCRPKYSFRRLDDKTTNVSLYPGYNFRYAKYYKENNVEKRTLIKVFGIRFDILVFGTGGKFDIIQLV
Put plainly: SPR (Biacore […], CM5 chip, Langmuir […]). Format: binding.

Test [2] addresses T1, P2X7 receptor (mP2X7R). Briefly: BzATP/ATP-induced YO-PRO-1 uptake and Ca2+ influx in RAW […] cells. Format: cell-based.

Usually inhibition stands for the change of the read-out against control, counted positive when it falls. A high value points to strong suppression. One may read the Kd as the constant that tells how readily two partners part at equilibrium. A higher Kd goes with weaker binding.

`Clc1cccc(-c2nnnn2Cc2cccnc2)c1Cl` [A438079] registered an inhibition at 10 µM against P2X7 receptor (mP2X7R) [1] of 48.3%.
Turning to `Cc1c(C)c(O)c2c(c1O)C(=O)C1=C(S[C@@H]3O[C@H](CO)[C@@H](O)[C@H](O)[C@H]3O1)C2=O` [compound 4], binding at P2X7 receptor (hP2X7) was characterised by a dissociation constant (Kd) of 13 µM. On P2X7 receptor (mP2X7R) [2], this compound returned an inhibition at 0.1 µM of 52.7%.

The values are drawn from paper PMC10418395, “Tetracyclic 1,4-Naphthoquinone Thioglucoside Conjugate U-556 Blocks the Purinergic P2X7 Receptor in Macrophages and Exhibits Anti-Inflammatory Activity In Vivo” (International Journal of Molecular Sciences, 2023).
